Results as given in patent US7829589B2, “Sulfonamide compounds and uses thereof” (Elixir Pharmaceuticals, Inc., priority 2005, dated 2010).
“Also recorded” adds a separate entry of the source. Ends that are not written are not given here.

Tests used:
[1] = system: mice; assay: Plasma HbA1c and lipid profile after 28 day dosing; assay type: in vivo; conditions: at 28 days; for cholesterol levels / plasma HbA1c levels: versus vehicle
Source text: (§1) Group housed, male, C57bl/6 mice received high fat diet and water ad lib to establish diet-induced obesity, and for the duration of the experiment. After acclimating to individual housing for at least 5 days, mice were then acclimated to bid oral gavage with vehicle for 7 days. Once acclimated, mice were culled into equal groups (n>10/group) according to body weight and compound dosing began. Mice received either vehicle or compound (bid, po) for periods up to 28 days, during which body weight and food intake were measured daily. Representative cohorts (based on BW) for each group were removed at 7, 14, 21 or 28 days for glucose tolerance tests and tissue analysis.
Mice are sacrificed by CO2 asphyxiation and terminal blood samples were collected via cardiac puncture. For HbA1c, whole blood is analyzed using a DCA2000+ glycated hemoglobin analyzer (Bayer Healthcare, Indianapolis, Ind.). Triglycerides, total cholesterol, and HDL-cholesterol were all measured using a Cholestech LDX lipid profile analyzer (Cholestech, Hayward, Calif.). As shown in FIG. 6 and FIG. 7, both plasma HbA1c and cholesterol levels were improved at 28 days in animals treated with compound 57 and compound 94 versus animals treated with vehicle alone.

[2] = biological target: GHS-R (Homo sapiens, UniProt Q92847); assay: GHS-R antagonist activity (Ki) in a cell based assay
GHS-R, sequence (Q92847 whole entry, species assumed): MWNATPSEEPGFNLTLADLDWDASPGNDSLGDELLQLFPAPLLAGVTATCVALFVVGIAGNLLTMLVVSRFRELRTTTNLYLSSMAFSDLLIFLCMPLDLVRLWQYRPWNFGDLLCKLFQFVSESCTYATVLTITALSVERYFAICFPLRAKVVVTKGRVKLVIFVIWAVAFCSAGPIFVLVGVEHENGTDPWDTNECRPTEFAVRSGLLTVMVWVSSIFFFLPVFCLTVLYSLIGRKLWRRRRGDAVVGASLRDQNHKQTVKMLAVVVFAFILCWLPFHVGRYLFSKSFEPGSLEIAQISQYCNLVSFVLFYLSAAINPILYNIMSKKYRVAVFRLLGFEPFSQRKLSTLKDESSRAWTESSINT
Procedure, shortened: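 Transfected COS-7 cells were labelled 24 h with [^3H]-myo-inositol and preincubated 30 min at 37 °C in HEPES buffer pH 7.4 with 10 mM LiCl, optionally with 1 U/ml adenosine deaminase. Compound was applied for 45 min at 37 °C. [^3H]-inositol phosphates were extracted with perchloric acid and isolated by anion-exchange resin.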

[3] = system: C57bl/6 mice; assay: Ghrelin-induced food intake in mice dosed ip; assay type: in vivo; conditions: 1, 3, 10, 30 mpk ip after ghrelin ip; food intake at 1, 2, 4, 6 hours; relative to vehicle
Description: Ad libidum low fat chow-fed male C57bl/6 mice were acclimated to individual housing for >5 days prior to the experiment. On the morning of the experiment food was removed from the cages and animals were then dosed ip (n=8/group) with either vehicle or ghrelin followed one minute later by a second ip injection containing either vehicle or one of several doses of compound (1, 3, 10, 30mpk ip). Immediately after the second dosing food was returned to the cages and food intake was measured 1, 2, 4 and 6 hours later.

[4] = system: mice (DIO); assay: Glucose tolerance test (GTT), insulin sensitivity in DIO mice; assay type: in vivo
Source text: as §1
On the night prior to the GTT, mice (DIO) within each dose group (n=8/group) had their body weight measured and were then fasted overnight for 16 hours prior to the GTT. On the morning of the GTT a 40 µL blood sample was removed from the tail for baseline fasted blood glucose and plasma insulin measurements. Mice then received their normal dose of compound. One hour later mice were dosed with glucose ([…], either IP or PO) and further tail bleeds (40 µL) were taken at 15, 30, 60 and 120 minutes after the glucose dose for blood glucose and plasma insulin measurements. Mice were sacrificed following the final sample time. Baseline fasted blood glucose levels are provided in FIG. 4a for compound 57 and in FIG. 4d for compound 94.

[5] = system: C57bl/6 mice; assay: 28 days oral dosing in diet-induced obese mice: body weight and food intake; assay type: in vivo; conditions: bid po up to 28 days
Source text: as §1

[6] = Preliminary PK studies (IV/PO), oral bioavailability and brain/plasma ratio; assay type: in vivo; conditions: mouse, male diet-induced obese C57bl/6 mice; for Kp: brain and plasma, brain AUC vs plasma AUC; for bioavailability: oral bioavailability, plasma AUC PO vs IV
Description: Male, diet-induced obese, ad libidum fed, C57bl/6 mice were used for these preliminary PK studies. They were dosed (n=3 mice per data point) either IV or PO. Mice ere sacrificed and the blood/brains collected at the following times: IV samples were taken at 5, 15, 30, 60, 120, 240, 480 minutes after dosing; PO samples were taken at 15, 30, 60, 120, 240, 480 minutes after dosing. Plasma and brain samples were evaluated for the presence of compound. Oral bioavailability (% F) was determined by comparing the plasma AUCIV and AUCPO. The brain/plasma ratio was determined by comparing the brain AUC and plasma AUC values.

[7] = system: mice; assay: Fast refeed assay; assay type: in vivo
Description: Food is removed at 6 pm for an overnight (˜16 hour) fast. Beginning at 10 am on the next morning, mice are administered with either vehicle (e.g., saline+acetic acid, pH=5) or the compound of interest. Mice are then returned to their home cages and pre-weighed food (approximately 90 grams) is immediately returned to the food hoppers in each cage. The weight of the food remaining in the food hoppers is measured at 30 minutes, 1 hour, 2 hours, and 4 hours post compound/vehicle administration. Final body weights are then recorded for the mice.

[8] = FIGS. 4a-4f, 7 to 28 days oral dosing

Molecule	cholesterol levels [1]	plasma HbA1c levels [1]	Ki [2] [nM]	ghrelin-induced food intake [3]	insulin sensitivity [4, 8]	insulin sensitivity ([4]; GTT at 7 days of oral dosing)	body weight [5]	food intake [5]	Kp [6]	bioavailability [6] [%]	further results
CCN(CC)CCCS(=O)(=O)N[C@H](CCc1ccccc1)c1nc(Cc2ccc(Br)cc2)no1 [Compound 57, 3-Diethylamino-propane-1-sulfonic acid {(R)-1-[3-(4-bromo-benzyl)-[1,2,4]oxadiazol-5-yl]-3-phenyl-propyl}-amide]	improved cholesterol levels	improved plasma HbA1c levels	< 100	block ghrelin-induced food intake; also recorded: reduced food intake	improvement in insulin sensitivity	improved insulin sensitivity	decreased body weight; also recorded: decrease in body weight	No apparent effect on food intake	0.139	10.2	insulin sensitivity ([4]; GTT at 21 days of oral dosing): improved insulin sensitivity
CCN(CC)CCCS(=O)(=O)N[C@H](CCc1ccccc1)c1nc(-c2ccc(OC)cc2)n[nH]1 [Compound 94, 3-Diethylamino-propane-1-sulfonic acid {(R)-1-[5-(4-methoxy-phenyl)-2H-[1,2,4]triazol-3-yl]-3-phenyl-propyl}-amide]	improved cholesterol levels	improved plasma HbA1c levels	< 100	block ghrelin-induced food intake; also recorded: reduced food intake	improvement in insulin sensitivity	improved insulin sensitivity	decreased body weight; also recorded: decrease in body weight	No apparent effect on food intake	0.087	63.2	triglyceride levels [1]: improved triglyceride levels; insulin sensitivity ([4]; GTT at 28 days of oral dosing): improved insulin sensitivity
CCN(CC)CCCS(=O)(=O)NCc1nc(Cc2ccc(Cl)cc2)n[nH]1 [Compound 157, 3-Diethylamino-propane-1-sulfonic acid [5-(4-chloro-benzyl)-2H-[1,2,4]triazol-3-ylmethyl]-amide]	–	–	100 to 500	–	–	–	–	–	–	–	–
CCN(CC)CCCS(=O)(=O)N[C@@H](CC(C)C)c1nc(-c2ccc(OC)cc2)n[nH]1 [Compound 159, (S)-3-Diethylamino-propane-1-sulfonic acid {1-[5-(4-methoxy-phenyl)-2H-[1,2,4]triazol-3-yl]-3-methyl-butyl}-amide]	–	–	100 to 500	–	–	–	–	–	–	–	–
CCN(CC)CCCS(=O)(=O)N[C@H](CC(C)C)c1nc(-c2ccc(OC)cc2)n[nH]1 [Compound 160, (R)-3-Diethylamino-propane-1-sulfonic acid {1-[5-(4-methoxy-phenyl)-2H-[1,2,4]triazol-3-yl]-3-methyl-butyl}-amide]	–	–	100 to 500	–	–	–	–	–	–	–	–
substance P (RPKPQQFFGLM-NH2; ends and bridges not checked; UniProt P20366 58-68, looked up)	–	–	–	–	–	–	–	–	–	–	feeding activity [7]: alters feeding activity
